Reference: patent publication US10774049B2, “PU.1 inhibitors” (Albert Einstein College of Medicine, priority 2016, dated 2020)
Where a name gives a salt, the structure may show the parent alone.

Experiments:
PU.1 URE−/− AML cells = experiment: Apoptosis (Annexin-V+Dapi−) in PU.1 URE−/− AML cells; type: cell-based; conditions: murine PU.1 URE−/− AML cells, 48 h, vs vehicle
Description: FIG. 2A-2F. PU.1 inhibition decreases cell growth and increases apoptosis of PU.1^1″ leukemic cells. (A) Chemical structures of heterocyclic diamidines DB1976, DB2115 and DB2313 used in this study. (B) Relative cell viability of URE−/− cells and BAF3 cells after treatment with increasing concentrations of vehicle or small molecules. Cell viability was assessed after 48 h. Data represent means of technical triplicate from one representative experiment; fold change compared to Vehicle is shown. (C) Cell proliferation assay of URE−/− after treatment with DB1976 (n=5), DB2115 (n=3), DB2313 (n=3), of MOLM13 cells (n=3), and THP1 cells (n=3). Cell counting was performed every 24 h during 4 days. Data represent means±SD of technical triplicate from one representative experiment. Forward strand: SEQ ID NO:3, and Reverse strand: SEQ ID NO:4; derived from the λB motif from the murine Ig lambda 2-4 enhancer, a known native PU.1-dependent gene and specific binding site for PU.1. (D) Clonogenic capacities of URE−/− cells after treatment with DB1976 (n=5), DB2115 (n=3) and DB2313 (n=4) in the first plating, and after serial replatings (n=3). Data represent means±SD of technical triplicate from one representative experiment. (E) Apoptotic cells (Annexin-V+Dapi−) fraction in URE−/− cells after 48 h of treatment with DB1976 (n=6), DB2115 (n=6) and DB2313 (n=3). Data represent the means±SD of independent experiments; fold change compared to Vehicle is shown. *P<0.05, **P<0.01, ***P<0.001, ****P<0.0001 (F) Dose dependent inhibitor of PU.1-dependent transactivation.
To determine if our PU.1 inhibitors have an effect on PU.1^low-induced AML cells, we treated the PU.1 URE^−/− AML cell line with compounds at different concentrations. Treatment with the drugs led to a profound decrease in growth of PU.1 URE^−/− AML cells after 48 h whereas it had only minimal or no effects on control cells with normal PU.1 levels (BaF3), even at very high doses (FIG. 3A). […]

λB promoter DNA sequence = experiment: SPR binding of compounds to immobilized λB promoter DNA; design: species or system murine; conditions: biosensor-SPR, 1:1 complex
Description: FIG. 8A-8C depicts (A) DB2313 synthesis (B-C) Representative SPR sensorgrams for compounds binding to the immobilized λB promoter DNA sequence: (B) DB2313 (KD=7±2 nM) and (C) DB1976 (KD=5±2 nM) as previously described (Munde et al., 2014). The solid black lines are best fit values for global kinetic fitting of the results with a single binding site function. Similar experiments with DB2115 gave a KD=1±2 nM. The plots are for the SPR signal (RU) versus time from injection of the compound over the sensorchip. From 0 to 180 seconds, compound is being injected (association) and after that only buffer flows over the chip. (B) From top to bottom: 10, 30, 40 nM. (C) From top to bottom: 5, 10, 15 nM.
To test whether these heterocyclic diamidines targeted cognate DNA binding sites for PU.1, we assessed binding to the λB motif by biosensor-surface plasmon resonance (SPR). Duplex DNA harboring the λB motif was immobilized on a streptavidin functionalized sensor chip with a dextran surface as described. The DNA was 5′-end labeled with biotin and captured on the sensor chip. Based on the known strong AT selectivity of these heterocyclic diamidines, they are expected to bind to the AT rich λB promoter sequence at the 5′ side of the 5′-GGAA-3′ PU.1 conserved recognition sequence. Sensorgrams obtained from the compounds-DNA association and disassociation reactions were used to determine equilibrium dissociation constants. The KD values indicate strong binding by all three compounds to form a 1:1 complex, and a binding K^D of 1±2 nM for DB2115 and 4-7 nM for DB1976 and DB2313 with the λB promoter.

primary human AML cells = experiment: Primary human AML mononuclear cells in semi-solid media (viable cells, colonies, apoptosis); type: cell-based; conditions: for mean decrease in number of viable cells / mean decrease of clonogenic capacity: in comparison to vehicle; for average increase of apoptotic cell fraction: vs vehicle
Description: FIG. 4A-4G. PU.1 inhibition decreases cell growth and increases apoptosis of primary human AML cells. (A-C) Transduced GFP+ human primary mononuclear AML cells were plated in semi-solid media (150 000 cells per ml of methyl); colony number, number of viable cells and apoptotic cells were assessed after 14 days of culture. (A, B) Clonogenic capacities and number of viable cells after transduction with shPU.1_1 and shPU.1_2 (n=7). (C) Apoptotic cells (Annexin-V+Dapi−) fraction after transduction with shPU.1_1 and shPU.1_2 (n=7). (D-F) Human primary mononuclear AML cells were plated in semi-solid media (150 000 cells per ml of methyl) containing the PU.1 inhibitors DB1976, DB2115 and DB2313; colony number, number of viable cells and apoptotic cells were assessed after 14 days of culture. (D-E) Clonogenic capacities (n=9) and number of viable cells (n=8) after treatment. (F) Apoptotic cells (Annexin-V+Dapi−) fraction after treatment (n=8). […] (A-G) Data represent means±SD, each AML sample is represented by an individual dot. Fold change compared to shCtrl or Vehicle is shown.
To determine whether PU.1 inhibition has an effect on primary cells from AML patients, we seeded mononuclear cells from AML patients in semi-solid media for 2 weeks and assessed the number of colonies, the number of viable cells and the proportion of apoptotic cells. […] At the same time, the proportion of apoptotic cells increased on average of 2-fold upon knockdown of PU.1 in primary human AML cells with the more efficient shRNA (shPU.1_2) (FIG. 1F).
We also explored the effect of the small molecule PU.1 inhibitors on primary human AML cells, and treated 11 samples from AML patients with PU.1 inhibitors. PU.1 inhibitors led to significant decreases in the number of viable cells (mean decrease: 81% for DB1976, 68% for DB2115, 72% for DB2313) (FIG. 3E), and clonogenic capacity (mean decrease of 36% for DB1976, 45% for DB2115, 60% for DB23313), in comparison to vehicle (FIG. 3F). The apoptotic cell fraction increased on average by 1.5-fold with DB1976, 2.2-fold with DB2115 and 2.5-fold with DB2313 (FIG. 3G).

| Compound | fold increase of apoptotic cells (PU.1 URE−/− AML cells) | Kd (λB promoter DNA sequence) | mean decrease in number of viable cells (primary human AML cells) | mean decrease of clonogenic capacity (primary human AML cells) | average increase of apoptotic cell fraction (primary human AML cells) |
| --- | --- | --- | --- | --- | --- |
| N=C(N)c1ccc2nc(-c3ccc(-c4nc5ccc(C(=N)N)cc5[nH]4)[se]3)[nH]c2c1 [DB1976] | 1.6 fold | 5 ± 2 nM | 81% | 36% | 1.5 fold |
| N=C(N)c1ccc2nc(-c3ccc(OCCCCOc4ccc(-c5nc6ccc(C(=N)N)cc6[nH]5)cc4)cc3)[nH]c2c1 [DB2115] | 2 fold | 1 ± 2 nM | 68% | 45% | 2.2 fold |
| CC(C)NC(=N)c1ccc2nc(-c3ccc(OCc4cccc(COc5ccc(-c6nc7ccc(C(=N)NC(C)C)cc7[nH]6)cc5)c4F)cc3)[nH]c2c1 [DB2313, 3-Bis{4[4(5)-N-isopropylamidinobenzimidazolyl]phenoxymethyl]}-2-fluorobenzene tetrahydrochloride] | 3.5 fold | 7 ± 2 nM | 72% | 60% | 2.5 fold |
